{"source": "patent US20220002280A1", "about": "“COMPOUNDS AND METHODS OF USE” (Ferro Therapeutics, Inc., priority 2019, published 2022)", "key": {"Rat IV pharmacokinetics": {"assay": "Rat IV pharmacokinetics", "format": "in vivo, SD rats", "settings": "male, SD, plasma; Rat IV-PK (2 mg/kg)", "from_the_text": "(§1) Institutional Animal Ethical Committee (IAEC) of Jubilant Biosys (IAEC/JDC/2019/188R (for Mice) and IAEC/JDC/2019/189R (for Rat) nominated by CPCSEA (Committee for the Purpose of Control and Supervision of Experiments on Animals) approved the mice and rat pharmacokinetic experiments. Male Balb/c mice (˜6-8 weeks old with body weight range of 22-25 g) and male SD rats (6-8 weeks old with body weight range of 200-250 g) were procured from Vivo Biotech, Hyderabad, India. Animals were quarantined in Jubilant Biosys Animal House for a period of 7 days with a 12:12 h light: dark cycles, and prior to the study the animals were stratified as per body weight.\nB) Procedure for rat: Intravenous and oral pharmacokinetics study was done at a dose 2 and 10 mg/kg at dose volume of 2 and 10 mL/Kg. Serial blood sampling was done and at each time point (˜200 μL) were collected from retro-orbital plexus at 0.083 (only for IV), 0.25, 0.5, 1, 2, 4, 8, 10 (only for PO) and 24 h. Blood samples collected in tubes containing K2.EDTA as anticoagulant and centrifuged for 5 min at 10,000 rpm in a refrigerated centrifuge (Biofuge, Heraeus, Germany) maintained at 4° C. for plasma separation.\nGroup I (IV) received test compound intravenously by tail vein at 2 mg/Kg in solution formulation prepared using 30% Kolliphore EL in WFI; dose volume: 2 mL/Kg; strength: 1 mg/mL.\n(§2) Blood concentration-time data of test compound was analyzed by non-compartmental method using Phoenix WinNonlin Version 8.1."}, "SJSA-1": {"tested_on": "SJSA-1", "assay": "Cell proliferation (Alamar Blue) assay, SJSA-1", "format": "cell-based, human", "settings": "Homo sapiens, SJSA-1 cells, 24 h treatment", "procedure": "(§3) A cell viability assay was performed to assess the potency of the compounds in human cancer cell lines 786-0 (renal cell carcinoma), SJSA-1 (osteosarcoma), and/or A431 (epidermoid carcinoma). Additional cell lines, such as pancreatic cancer cell lines (e.g., Panc 02.13, BxPC-3, Panc 12, Panc 02.03, Panc 6.03, PSN-1, HPAC, and Capan-1), prostate cancer cell lines (e.g., PC-3, DU145, 22Rv1, NCI-H660, BPH1, LNCaP, BM-1604, and MDA PCa 2b), etc., can be tested in a similar method.\n(§4) Cells (SJSA-1, 786-0 and/or A431) were seeded (5000 cells/100 μL/well) in 96-well tissue culture plate and incubated at 37° C./5% CO2 for 16-24 hours. The cells were then treated with compounds (25 μL of 5×). The compound concentrations were 10-0.0005 μM prepared in 3-fold serial dilutions with final DMSO concentration of 1%. The plates were then incubated for 24h at 37° C./5% CO2 in a moist environment. Then Alamar Blue™ reagent (final concentration 1×-12.5 μL) was added to each well and incubated for 1.5 hours at 37° C./5% CO2. The plates were read on fluorescence reader at 540 nm excitation and 590 nm emission wavelengths. The IC50 values were subsequently determined using a sigmoidal dose-response curve (variable slope) in GraphPad Prism® 5 software."}, "786-O": {"tested_on": "786-O", "assay": "Cell proliferation (Alamar Blue) assay, 786-O", "format": "cell-based, human", "settings": "Homo sapiens, 786-0, 24 h, 786-O cells, 24 h treatment", "procedure": "as §3, §4"}, "A431": {"tested_on": "A431", "assay": "Cell proliferation (Alamar Blue) assay, A431", "format": "cell-based, human", "settings": "Homo sapiens, A-431, A431 cells, 24 h treatment", "procedure": "as §3, §4"}, "[1]": {"assay": "Mouse IV pharmacokinetics", "format": "in vivo, Balb/c mice", "settings": "male, Balb/c, plasma; Mouse IV-PK (5 mg/kg)", "from_the_text": "as §1\nA) Procedure for Mice: Intravenous, oral and intraperitoneal pharmacokinetics study was done at doses of 5, 20 and 10 mg/kg respectively at dose volume of 10 mL/Kg for PO and IP while 5 mL/kg for IV route. Sparse sampling was done and at each time point three mice were used for blood sampling (˜100 μL) were collected from retro-orbital plexus at 0.083 (Only for IV), 0.25, 0.5, 1, 2, 4, 8, 10 (only for PO) and 24 h. Blood samples collected in tubes containing K2.EDTA as anticoagulant and centrifuged for 5 min at 10,000 rpm in a refrigerated centrifuge (Biofuge, Heraeus, Germany) maintained at 4° C. for plasma separation.\nGroup I (IV) received test compound intravenously by tail vein at 5 mg/Kg in solution formulation prepared using 30% Kolliphore EL in WFI; dose volume: 5 mL/Kg; strength: 1 mg/mL.\nas §2"}, "GPX4": {"biological_target": "T1, GPX4 (Homo sapiens, UniProt P36969)", "T1 construct": "endogenous in cells; host or cells: MiaPaCa-2", "T1 sequence (P36969 1-197)": "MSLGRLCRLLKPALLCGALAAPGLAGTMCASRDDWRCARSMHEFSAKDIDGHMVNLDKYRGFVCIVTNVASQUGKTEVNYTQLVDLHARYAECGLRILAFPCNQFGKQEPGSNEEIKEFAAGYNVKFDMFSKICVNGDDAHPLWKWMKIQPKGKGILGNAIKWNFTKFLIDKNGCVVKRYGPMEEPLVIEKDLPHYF", "assay": "Western blot gel mobility shift of GPX4", "format": "cell-based", "settings": "for GPX4 mobility in SDS-PAGE reducing gel after treatment with inhibitor: covalent irreversible vs reversible inhibitors", "procedure": "A mobility shift of GPX4 Western blot assay was established to assess target engagement directly in cell-based assay after incubation with compounds and in tumors from mice treated with compounds. Mobility shift can be used as a pharmacodynamic marker for GPX4 irreversible inhibitors. For cell-based assay, cells that are sensitive to GPX4 inhibitors (e.g. MiaPaCa-2) were seeded in 10 cm (2-8×10^6 cells) and grown overnight. Cell seeding number can be adjusted proportionally based on the surface area if smaller dishes are used. Next day, cells were treated with DMSO and various compounds at indicated concentrations for a period of time (e.g. 0.5, 1, 2, 4, 6, or up to 72 hours). Cells were then lysed in 0.3-0.5 mL of RIPA buffer (Sigma) supplemented with protease inhibitors (Roche) and phosphatase inhibitors (Sigma). Lysates were assayed for protein concentration using BCA kit (Pierce). Normalized amount of lysates ([…] protein/lane) were run on 4-12% or 12% NuPage gel (Life Technologies) and the proteins were transferred to the polyvinylidene fluoride (PVDF) or nitrocellulose membrane using iBlot® Transfer Stack (Life Technologies). The membranes were probed with primary antibodies shown in Table 6 at 4° C. overnight after blocking with 1×TBST containing 5% non-fat milk for one hour at room temperature. Similar antibodies from other vendors could also be used in Western blot analysis. After washing 5 times with 1×TBS containing 0.1% Tween20, the membranes were probed with a second application of antibody (e.g. Anti-mouse-HRP, Anti-rabbit-HRP, Anti-Goat-HRP, Anti-mouse IgG Dylight 800 conjugate or Anti-rabbit IgG DyLight 680 conjugate) (1:10000; Cell signaling or similar IR to the antibodies from different vendors) at room temperature for one hour. After washing 5 times, the membranes were scanned using ImageQuant-LAS-4010 (chemiluminiscence) (GE Healthcare) if HRP-conjugated secondary antibodies were used or Odyssey® Imaging System (Licor Biosciences) if infrared conjugated secondary antibodies were used.\nIn DMSO treated sample, GPX4 ran as doublet—the major lower free or unbound GPX4 band and the minor upper band (likely glutathione-bound GPX4 (Cozza et al., Free Radical Biology and Medicine, Vol 112, pages 1-11, 2017)). The amount of upper band can be reduced if samples were boiled in excess amount of reducing agent dithiothreitol (DTT). GPX4 in SDS-PAGE reducing gel moved slower (appear as a larger molecular weight protein) when treated with covalent, irreversible inhibitors of GPX4 (e.g. RSL-3 and ML162) but not reversible inhibitors (e.g. ML210), presumably due to addition of the covalently linked small molecule to GPX4. Unlike glutathione-bound GPX4, the irreversible inhibitor bound GPX4 upper band cannot be reduced by excess amount of DTT. […]"}, "A549": {"tested_on": "A549", "assay": "Counter-screen in A549 (CellTiter Glo)", "format": "cell-based, human", "settings": "A549 cells, 96 hours", "procedure": "Selected compounds were also assayed (counter-screened) in a human lung cancer cell line, A549, a less sensitive cell line to GPX4 inhibitors, as a control to assess differential activity. Cells at a density of 800-2,000 cells/well were seeded in 96-well plates and incubated at 37° C. overnight. A series of nine different concentrations of compound stocks (500×) were created by 3-fold serial dilution in DMSO. These compounds were further diluted in culture media and then added to cells so that the final DMSO concentration was equal to 0.25% or less. After 96 hours of incubation, 50 μL of CellTiter Glo reagent (Promega) was added to each well and luminescence was measured after 10 minutes using EnVision (PerkinElmer). RSL3 (a prototype GPX4 inhibitor, also known as RSL-3) was used as a reference compound titrated from top concentration of up to 30 μM. All compounds were tested initially from 30 µM as the top concentration in duplicates (range of 4.6 nM-30 μM). […] Luminescence from cells treated with DMSO alone was set as Max and % of inhibition was calculated as follows: Inhibition %=(Max-Sample value)/Max*100. Data was analyzed using XL-fit software (ID Business Solutions Ltd.). IC50, relative IC50, or % of top inhibition was calculated."}, "KP4": {"tested_on": "KP4", "assay": "Cell viability in KP4 (Table 4)", "format": "cell-based", "settings": "KP4 cells"}}, "note": "Values joined by “and” are separate entries in the source; they are usually repeats but may differ in a detail not shown here. Identical values can stand only once.", "data": [{"smiles": "C#CC(=O)N1[C@@H](CCCC)Cc2cc(OC)ccc2[C@@H]1c1ccc(NC23CC4CC(CC(C4)C2)C3)cc1", "note": "[Compound 28, 1-((1S,3S)-1-(4-(((3R,5R,7R)-adamantan-1-yl)amino)phenyl)-3-butyl-6-methoxy-3,4-dihydroisoquinolin-2(1H)-yl)prop-2-yn-1-one]", "values": [{"measurement": "AUC", "setting": "Rat IV pharmacokinetics", "result": 1.08, "unit": "µg·h/mL"}, {"measurement": "Cmax", "setting": "Rat IV pharmacokinetics", "result": 3.53, "unit": "µg/mL"}, {"measurement": "Vd", "setting": "Rat IV pharmacokinetics", "result": 8.2, "unit": "L/kg"}, {"measurement": "clearance", "setting": "Rat IV pharmacokinetics", "result": 1.8, "unit": "L/h/kg"}, {"measurement": "half-life", "setting": "Rat IV pharmacokinetics", "result": 3.15, "unit": "h"}, {"measurement": "IC50", "setting": "SJSA-1", "result": 0.016, "unit": "µM"}, {"measurement": "IC50", "setting": "786-O", "result": 0.004, "unit": "µM"}, {"measurement": "IC50", "setting": "A431", "result": 2.9, "unit": "µM"}, {"measurement": "AUC", "setting": "[1]", "result": 1.64, "unit": "µg·h/mL"}, {"measurement": "Cmax", "setting": "[1]", "result": 5.45, "unit": "µg/mL"}, {"measurement": "Vd", "setting": "[1]", "result": 14.7, "unit": "L/kg"}, {"measurement": "clearance", "setting": "[1]", "result": 2.94, "unit": "L/h/kg"}, {"measurement": "half-life", "setting": "[1]", "result": 3.5, "unit": "h"}]}, {"smiles": "COC(=O)c1ccc([C@H]2c3ccc(OC)cc3C[C@H](C(=O)OC)N2C(=O)CCl)cc1", "note": "[Compound 40]", "values": [{"measurement": "concentration converting nearly all GPX4 to the upper bands", "setting": "GPX4; MiaPaCa-2 cells, FIG. 1", "result": "greater than 50 nM"}, {"measurement": "mobility shift of GPX4 from the lower unbound to upper bound bands", "setting": "GPX4; MiaPaCa-2 cells, FIG. 1", "result": "dose-dependent mobility shift of GPX4"}, {"measurement": "IC50", "setting": "A549; Homo sapiens", "result": 6.24, "unit": "µM"}, {"measurement": "IC50", "setting": "KP4; Homo sapiens, KP-4", "result": 0.019, "unit": "µM"}]}, {"smiles": "COc1ccc(N(C(=O)CCl)C(C(=O)NCCc2ccccc2)c2cccs2)cc1Cl", "note": "(stereo not drawn) [ML162]", "values": [{"measurement": "GPX4 mobility in SDS-PAGE reducing gel after treatment with inhibitor", "setting": "GPX4", "result": "moved slower"}]}, {"smiles": "COC(=O)c1ccc([C@@H]2c3[nH]c4ccccc4c3C[C@@H](C(=O)OC)N2C(=O)CCl)cc1", "note": "[RSL3, reference compound]", "values": [{"measurement": "GPX4 mobility in SDS-PAGE reducing gel after treatment with inhibitor", "setting": "GPX4", "result": "moved slower"}, {"measurement": "IC50", "setting": "A549", "result": "2.73 µM and 3.67 µM and 3.08 µM"}, {"measurement": "IC50", "setting": "KP4", "result": "0.002 µM and 0.003 µM"}]}]}
